Patent EP0002933A1, “Method for assessing cancerous malignancy or benignity and diagnostic pack for use therein” (Gosalvez, Mario Gosalvez, priority 1977, dated 1979)

How the values were obtained:
pyruvate kinase [1] = test: ATP inhibition of pyruvate kinase in cell homogenates (compound optical assay, NADH at 340 mµ); format: biochemical, Mouse
Source text: (§1) In more detail, the theoretical basis of this new method is as follows. -The step-wise degradation of glucose to pyruvic acid, according to the well-known Embden-Myerhof pathway, includes the reaction: [drawing 3] wherein ADP and ATP are, respectively, adenosine diphosphate and adenosine triphosphate. In healthy cells this reaction is suppressed by ATP inhibition of the enzyme pyruvate kinase. I have discovered, as previously noted, that in cancerous cells the reaction proceeds in greater or less degree, correlative to the degree of malignancy, in proportion to the extent to which ATP fails to inhibit pyruvate kinase activity. A preferred assay, therefore, involves assessment of the progress of the foregoing reaction in the presence of various levels of ATP calculated to reveal the extent, if any, by which sample-derived pyruvate kinase activity is inhibited by ATP. The extent of such inhibition can be characterised on a percentage scale relative to the foregoing reaction, taking 0% as no inhibition, 100% as total inhibition, and "maximum percent inhibition of pyruvate kinase activity" as that point on the scale beyond which addition of further ATP essentially fails to affect further the progress of the reaction.
(§2) An especially preferred method of following the reaction spectrophotometrically involves compound optical assay, in which the influence of the reaction under study on a secondary reaction with an observable end product is followed. See Felu, FEBS Letters 50, 334 (1975) and Bucher, T. et al., in : Methods in Enzymology, Vol. I (S.P. Colowick and N.O. Kaplan, eds.) Academic Press, N.Y. p. 435. Thus, in the compound reaction: [drawing 4] pyruvate kinase activity can be monitored by observing the rate of disappearance of the band (at 340 m µ) of the hydrogen donor NADH (nicotinamide adenine dinucleotide, reduced form). Successive repetitions of the assay with differing amounts of added ATP establish the point beyond which ATP addition fails to influence the rate of disappearance of the hydrogen donor.
Samples for assay may be obtained as whole tissue (e.g., of volume 1-10 mm^3) in the case of suspected tumours, by intraoperatorybiopsy or needle biopsy. In the case of suspected blood malignancies, the collection of white blood cells by differential centrifugation is sufficient. Samples are preserved on ice pending the preparation of homogenates suitable for assay. Homogenisation frees cell-contained pyruvate kinase for assay and involves cell disruption by conventional techniques which avoid, to a useful degree, the destruction of nuclei, mitochondria and other cell particulates. Typically, the sample may be placed in a hand homogeniser which is supplied with the assay kit, in buffered isotonic solution, and homogenised with several strokes of a pestle. […]

pyruvate kinase [2] = test: as above; format: biochemical
Source text: as §1, §2
Samples for assay may be obtained as whole tissue (e.g., of volume 1-10 mm^3) in the case of suspected tumours, by intraoperatorybiopsy or needle biopsy. In the case of suspected blood malignancies, the collection of white blood cells by differential centrifugation is sufficient. Samples are preserved on ice pending the preparation of homogenates suitable for assay. Homogenisation frees cell-contained pyruvate kinase for assay and involves cell disruption by conventional techniques which avoid, to a useful degree, the destruction of nuclei, mitochondria and other cell particulates. Typically, the sample may be placed in a hand homogeniser which is supplied with the assay kit, in buffered isotonic solution, and homogenised with several strokes of a pestle. From, e.g., 0.1 to 1 ml of buffered solution, depending on the size of the sample, is preferably employed. As one of many appropriate buffers may be mentioned a solution comprising 50 mM Tris-HC1, pH 7.0, 0.1 mM EDTA and 0.5 mM dithioerythritol. In the preferred embodiment of the invention the homogenate is next centrifuged, for example at about 5,000-10,000 rpm in a conical centrifuge tube for 10 minutes, and the supernatant is dialysed against water (e.g., for 2 hours at about 2-4°C.). The contents of the dialysis bag are then transferred to a tube immersed in ice. In the case of large samples, the centrifugation and dialysis steps may be omitted, as will be appreciated by the art-skilled. Preferably, however, a dialysis bag is supplied with the kit. As used herein, the term "homogenate" refers to a free enzyme-containing product of homogenisation, whether or not accompanied by other cellular debris. […]

For Nc1ncnc2c1ncn2[C@@H]1O[C@H](COP(=O)(O)OP(=O)(O)OP(=O)(O)O)[C@@H](O)[C@H]1O [ATP, adenosine triphosphate], the “MAXIMUM % INHIBITION OF PYRUVATE KINASE BY ATP” value (pyruvate kinase [1]; Erhlich ascites (Paris strain), Mouse, Very high growth rate) was 4%, the “MAXIMUM % INHIBITION OF PYRUVATE KINASE BY ATP” value (pyruvate kinase [1]; Erhlich ascites tumour (Rome Strain), Mouse, Slow growth rate) was 39% and the “MAXIMUM % INHIBITION OF PYRUVATE KINASE BY ATP” value (pyruvate kinase [1]; Leukaemia 1210, Mouse, Very malign) was 16%. For the same compound, the “MAXIMUM % INHIBITION OF PYRUVATE KINASE BY ATP” value (pyruvate kinase [1]; Leukaemia P-P388, Mouse, Malign) was 25%, the “MAXIMUM % INHIBITION OF PYRUVATE KINASE BY ATP” value (pyruvate kinase [2]; Acute lympho-blastic leukaemia, Human, Moderately malign) was 32% and the “MAXIMUM % INHIBITION OF PYRUVATE KINASE BY ATP” value (pyruvate kinase [2]; Cerebral ependonoma, Human, Benign) was 40%. For the same compound, the “MAXIMUM % INHIBITION OF PYRUVATE KINASE BY ATP” value (pyruvate kinase [2]; Glioma, Human, Malign) was 15%, the “MAXIMUM % INHIBITION OF PYRUVATE KINASE BY ATP” value (pyruvate kinase [2]; Mammary carcinoma, Human, Malign) was 17% and the “MAXIMUM % INHIBITION OF PYRUVATE KINASE BY ATP” value (pyruvate kinase [2]; Mammary fibro-adenoma, Rat, Very benign) was 49%. For the same compound, the “MAXIMUM % INHIBITION OF PYRUVATE KINASE BY ATP” value (pyruvate kinase [2]; Multiform glioma, Human, Very malign) was 4%, the “MAXIMUM % INHIBITION OF PYRUVATE KINASE BY ATP” value (pyruvate kinase [2]; Normal liver, Human, No cell growth) was 99% and the “MAXIMUM % INHIBITION OF PYRUVATE KINASE BY ATP” value (pyruvate kinase [2]; Normal tissue, Rat, No cell growth) was 99%. For the same compound, the “MAXIMUM % INHIBITION OF PYRUVATE KINASE BY ATP” value (pyruvate kinase [2]; Ovarian carcinoma, Human, Malign) was 10% and the “MAXIMUM % INHIBITION OF PYRUVATE KINASE BY ATP” value (pyruvate kinase [2]; Walter Carcino-sarcoma, Rat, Malign) was 22%.
